What was measured:
[1] = biological target: T1, 6×-His-PYR1(27-18) (S47P, K59R, Y120H) (Arabidopsis thaliana, UniProt O49686, K59R/S47P/Y120H); test: In vitro PP2C phosphatase activity assay (receptor activation = inhibition of PP2C); format: biochemical; conditions: mutant 27-18; increasing concentrations; 10 mM Mn++ buffer; FIG. 1
T1 construct: 6x-His (N); made in house
Method: FIGS. 1A-1B. PYR1 mutant 27-18 confers responsiveness to fenhexamid but not ABA. Representative PYR1 mutant 27-18 (comprising S47P, K59R, and Y120H substitution mutations) was tested for responsiveness to abscisic acid (“ABA”) (FIG. 1A) and fenhexamid (FIG. 1B) at increasing concentrations as compared to a wild-type PYR1 control using an in vitro PP2C phosphatase activity assay.
To probe orthogonal receptor-ligand interactions further, recombinant protein was expressed for the fenhexamid-responsive mutant 27-18, which has three mutations in PYR1. 6×-His-PYR1(27-18) protein was expressed and purified alongside wild-type PYR1 protein. Both proteins were tested for their ability to inhibit PP2C activity in response to increasing concentrations of either ABA or fenhexamid using phosphatase activity assays, in which activation of the PYR/PYL receptor is monitored by inhibition of PP2C activity (FIG. 1).

[2] = test system: PYR1 variants 27C-1, 27C-2, 27C-3, 27C-5, 27C-16, 27C-18, 27C-19, 27C-20, 27C-21 (Table 8); test: MAV99 growth selection, third round of shuffling; format: cell-based, Arabidopsis; conditions: 1.5 μM fenhexamid; media lacking uracil; Table 8 variants
Method: A third round of shuffling was conducted by combining DNA for the “27B′” mutants shown in Table 7 and ePCR1 library to create a library of ˜150,000 clones which was then transformed into MAV99 pAD-HAB 1. Constitutive mutants were then depleted by growth on FOA after which fenhexamid sensitive mutants were selected by growth on media lacking uracil but containing 1.5 μM fenhexamid, using the methods described above.

PYL2 K64R,Y124H,M164I = biological target: T2, PYL2 K64R,Y124H,M164I (Arabidopsis thaliana, UniProt O80992, K64R/M164I/Y124H); test: Yeast two-hybrid assay, strain Y190 pAD-HAB1, X-gal staining; format: cell-based; conditions: FIG. 3A
T2 construct: expressed in transfected cells; host or cells: Saccharomyces cerevisiae Y190 pAD-HAB1
T2 sequence (O80992 whole entry K64R/Y124H/M164I): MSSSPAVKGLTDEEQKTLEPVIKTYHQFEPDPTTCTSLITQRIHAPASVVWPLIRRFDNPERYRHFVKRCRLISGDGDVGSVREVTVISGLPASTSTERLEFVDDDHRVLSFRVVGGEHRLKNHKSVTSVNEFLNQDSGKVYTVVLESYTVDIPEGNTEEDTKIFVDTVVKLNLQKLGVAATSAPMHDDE
Method: (§1) FIGS. 3A-3B. […] FIG. 3A. […] In addition, pocket residue mutations at V114I and/or V67I were introduced. The mutants (listed on left side of panel) were constructed in pBD-PYL2 and transformed into Y190 pAD-HAB1 yeast cells. The transformants were then grown on increasing concentrations of fenhexamid and scored for responsiveness using X-gal staining, performed as described in Park et al., 2009. […] FIG. 3B. In vitro characterization of PYL2 K64R, Y124H, M164I, V67I, V114I mutant. Recombinant wild-type and mutant PYL2 proteins were produced as described previously and used in PP2C assays, as described previously (Park et al., 2009), with the exception that a 2:1 ratio of receptor for phosphatase was used.
(§2) PYR1 is a member of the PYR/PYL receptor protein family, which in Arabidopsis contains 14 members. […] Given the conserved nature of these residues, we speculated that fenhexamid sensitivity could be engineered into other receptor family members by mutating homologous residues in other PYR/PYL receptors. To test this, we introduced the homologous mutations in PYL2 (K64R, corresponding to K59R in PYR1; Y124H, corresponding to Y120H in PYR1; and M164I, corresponding to M158I in PYR1), creating the mutant PYL2^K64R,Y124H,M164I. […]

[3] = biological target: T3, PYL2 K64R,Y124H,M164I,V67I,V114I (Arabidopsis thaliana, UniProt O80992, K64R/M164I/V114I/V67I/Y124H); test: as above; format: cell-based; conditions: FIG. 3A
T3 construct: expressed in transfected cells; host or cells: Saccharomyces cerevisiae Y190 pAD-HAB1
T3 sequence (Q9CAJ0 23-511): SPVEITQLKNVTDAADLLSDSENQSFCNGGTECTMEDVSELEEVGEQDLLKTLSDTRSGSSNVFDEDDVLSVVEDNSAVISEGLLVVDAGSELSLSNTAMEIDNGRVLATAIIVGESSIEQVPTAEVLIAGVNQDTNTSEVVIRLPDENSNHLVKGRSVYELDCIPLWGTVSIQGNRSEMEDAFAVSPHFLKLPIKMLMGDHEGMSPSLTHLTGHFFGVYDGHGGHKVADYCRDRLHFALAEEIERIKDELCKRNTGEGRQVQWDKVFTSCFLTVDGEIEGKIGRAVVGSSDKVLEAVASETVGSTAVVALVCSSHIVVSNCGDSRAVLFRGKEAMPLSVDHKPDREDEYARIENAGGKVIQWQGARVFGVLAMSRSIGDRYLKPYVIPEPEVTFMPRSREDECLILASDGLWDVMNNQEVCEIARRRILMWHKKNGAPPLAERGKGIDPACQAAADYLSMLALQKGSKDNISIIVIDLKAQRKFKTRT
T3 sequence (O80992 whole entry K64R/V67I/V114I/Y124H/M164I): as the sequence (O80992 whole entry K64R/Y124H/M164I) above, with V67I, V114I counted along it
Method: as §1, §2

[4] = biological target: T3, PYL2 K64R,Y124H,M164I,V67I,V114I; test: In vitro PP2C inhibition assay, 2:1 receptor to phosphatase; format: biochemical; conditions: FIG. 3B
Method: as §1, §2

[5] = test system: 35S::GFP-PYL2 K64R,Y124H,M164I,V67I,V114I transgenic plants; test: Quantitative RT-PCR of ABA reporter genes in seedlings; format: in vivo, Arabidopsis; conditions: 100 μM fenhexamid for 6 hours, liquid culture; two independent transgenic lines; FIG. 5
Method: FIG. 5. Characterization of seedling transcriptional responses to fenhexamid in 35S::GFP-PYL2 K64R, Y124H, M164I, V67I, V114I transgenic plants. GFP-expressing T2 seedlings from respective lines were isolated after germination on petri plates and pre-screened by epi-fluorescence microscopy and subsequently grown in liquid media culture for 7 days, after which seedlings were treated with either 100 μM fenhexamid or control (0.1% DMSO) for 6 hours. RNA was subsequently isolated from the samples and utilized in quantitative RT-PCR experiments using three well-characterized ABA responsive transcripts (as described previously, Park et al., 2009). The primer sequences used for RT-PCR analysis were obtained from Roche and synthesized by Invitrogen. Quantitative RT-PCR was performed using SybrGreen on a BioRad CFX 96 real-time PCR instrument. mRNA copy number is expressed as copy number per nanogram total RNA. Data was normalized using an ACT2 gene. Copy number was established using a standard curve of known concentration of the target genes. […]
To further investigate ABA-response activation, we next tested GFP^+ transgenics (T2 segregants) and appropriate controls for activation of 3 ABA reporter genes (P5CS1, RD29A, and NCED3) in response to exposure to fenhexamid in liquid culture using quantitative RT-PCR methods. […]

T1 sequence (O49686 whole entry S47P/K59R/Y120H): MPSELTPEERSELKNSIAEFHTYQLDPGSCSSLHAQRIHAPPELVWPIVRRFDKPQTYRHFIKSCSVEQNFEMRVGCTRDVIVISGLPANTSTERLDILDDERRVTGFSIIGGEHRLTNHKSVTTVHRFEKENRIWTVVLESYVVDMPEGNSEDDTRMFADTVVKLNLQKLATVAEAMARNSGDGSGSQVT
T1 sequence (Q9CAJ0 23-511, stated change not applied, further chain): as the sequence (Q9CAJ0 23-511) above

SMILES: CC1(C(=O)Nc2ccc(O)c(Cl)c2Cl)CCCCC1 [fenhexamid]
- Receptor activation (inhibition of PP2C activity) [1]: activated
- Growth in response to fenhexamid (selection) [2]: fenhexamid responsive
- fenhexamid responsiveness (yeast two-hybrid) (PYL2 K64R,Y124H,M164I): does not show fenhexamid responsiveness
- Response to fenhexamid in yeast assays [3]: respond
- Response to fenhexamid in in vitro PP2C inhibition assays [4]: respond
- Activation of 3 ABA reporter genes (P5CS1, RD29A, and NCED3) [5]: substantial induction

From patent US20160312240A1, “MODIFIED PYR/PYL RECEPTORS ACTIVATED BY ORTHOGONAL LIGANDS” (The Regents of the University of California, priority 2010, published 2016)
